Test results published in paper PMC3525792 (Bioorganic & medicinal chemistry letters, 2012).

What was measured:
SERT = details: read-out: SERT binding Ki; cited from earlier work
fluorescent properties = format: physicochemical
[1] = substrate: NCCc1ccc(O)c(O)c1; experiment: cells, lysate or membranes; details: other: substrate KM, determined in parallel; mean [SE interval]

Q: Which Ki (SERT) does the source give for `CN(C)CCCC1(c2ccc(F)cc2)OCc2cc(-c3cccc(N)c3)ccc21` (stereo not shown) [compound 3] here?
A: Its Ki is 10.4 nM.

Q: Which maximal emission wavelength (fluorescent properties) does the source give for `CCN(CC)c1ccc2c(-c3ccc(S(=O)(=O)NCCCCCC(=O)NCCC(=O)Nc4cccc(-c5ccc6c(c5)COC6(CCCN(C)C)c5ccc(F)cc5)c4)cc3S(=O)(=O)[O-])c3ccc(=[N+](CC)CC)cc-3oc2c1` (stereo not shown) [compound 8] here?
A: Its maximal emission wavelength is 592 nm.

Q: And the maximal excitation wavelength (fluorescent properties)?
A: The maximal excitation wavelength was 570 nm.

B1: hDAT (Homo sapiens) (protein)
chain: MSKSKCSVGLMSSVVAPAKEPNAVGPKEVELILVKEQNGVQLTSSTLTNPRQSPVEAQDRETWGKKIDFLLSVIGFAVDLANVWRFPYLCYKNGGGAFLVPYLLFMVIAGMPLFYMELALGQFNREGAAGVWKICPILKGVGFTVILISLYVGFFYNVIIAWALHYLFSSFTTELPWIHCNNSWNSPNCSDAHPGDSSGDSSGLNDTFGTTPAAEYFERGVLHLHQSHGIDDLGPPRWQLTACLVLVIVLLYFSLWKGVKTSGKVVWITATMPYVVLTALLLRGVTLPGAIDGIRAYLSVDFYRLCEASVWIDAATQVCFSLGVGFGVLIAFSSYNKFTNNCYRDAIVTTSINSLTSFSSGFVVFSFLGYMAQKHSVPIGDVAKDGPGLIFIIYPEAIATLPLSSAWAVVFFIMLLTLGIDSAMGGMESVITGLIDEFQLLHRHRELFTLFIVLATFLLSLFCVTNGGIYVFTLLDHFAAGTSILFGVLIEAIGVAWFYGVGQFSDDIQQMTGQRPSLYWRLCWKLVSPCFLLFVVVVSIVTFRPPHYGAYIFPDWANALGWVIATSSMAMVPIYAAYKFCSLPGSFREKLAYAIAPEKDRELVDRGEVRQFTLRHWLKV
Q: Which Km [1] does the source give for B1 here?
A: Its Km is 1010[909;1120] nM.
